Target: T1, PagSP04 (Phlebotomus argentipes, UniProt Q0ZSU5)
T1 construct: secreted recombinant protein from HEK293S GnTI- cells (pTW5sec); IMAC and size exclusion
T1 sequence (Q0ZSU5 19-398): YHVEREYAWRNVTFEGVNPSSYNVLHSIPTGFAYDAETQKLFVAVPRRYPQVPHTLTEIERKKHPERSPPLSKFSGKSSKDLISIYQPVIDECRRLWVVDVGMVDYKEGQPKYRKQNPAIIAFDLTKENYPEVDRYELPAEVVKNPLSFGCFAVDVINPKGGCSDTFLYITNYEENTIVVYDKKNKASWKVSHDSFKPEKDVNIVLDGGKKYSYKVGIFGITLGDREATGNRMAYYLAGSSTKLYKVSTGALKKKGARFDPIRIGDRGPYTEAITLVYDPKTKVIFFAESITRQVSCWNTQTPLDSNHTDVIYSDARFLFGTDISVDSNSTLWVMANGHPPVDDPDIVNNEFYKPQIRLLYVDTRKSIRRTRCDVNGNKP
Assay: microscale thermophoresis
Type: binding
Text: microscale thermophoresis on PagSP04

| SMILES | Kd [µM] |
| --- | --- |
| NCCc1c[nH]cn1 [Histamine] | 9.3 |
| NCCc1c[nH]c2ccc(O)cc12 [Serotonin] | 0.0869 |

Source: article PMC7206685, “Interactions between host biogenic amines and sand fly salivary yellow-related proteins” (Parasites & Vectors, 2020)
